{"source": "patent US20060135458A1", "about": "“Antiviral oligonucleotides” (priority 2002, published 2006)", "test_system": "Bal 31", "set-up": "key to the marks not given beside the values", "note": "In the oligonucleotide strings, read from the 5' end, every base follows the letter of its sugar. An asterisk marks phosphorothioate; unmarked linkages are phosphodiester. Other units and linkages are bracketed, terminal groups are in braces. A string of capitals states the bases alone. d = 2'-deoxy (DNA)", "data": [{"substance": "REP 2029: A40 (polyA) PS-ON (DNA dA*dA*dA*dA*dA*dA*dA*dA*dA*dA*dA*dA*dA*dA*dA*dA*dA*dA*dA*dA*dA*dA*dA*dA*dA*dA*dA*dA*dA*dA*dA*dA*dA*dA*dA*dA*dA*dA*dA*dA)", "values": [{"measurement": "Nuclease resistance, Bal 31", "value": "++++"}]}]}
